According to patent US20180000782A1, “THERAPEUTIC AGENT FOR KERATOCONJUNCTIVE DISORDERS” (priority 2012, published 2018):

Assays:
[1] = tested on: normal rabbit primary keratocytes; test: Suppression of three-dimensional collagen gel degradation in normal rabbit primary keratocytes (Example 1); format: cell-based; conditions: R667 0.1-1000 nM; stimulant 10 ng/ml and Plasminogen 60 μg/ml; 48 hours of culturing; FIG. 1
Procedure: Normal rabbit corneal cells were used to assess the suppression effect of a tested compound on three-dimensional collagen gel degradation in accordance with the method of Nishida et al (Investigative Ophthalmology & Visual Science 42: 1247-1253 (2001)).
Primary keratocytes collected from a normal rabbit eye ball was grown to a confluent state and detached from a culture slide with 0.05% Trypsin-EDTA. After washing in a serum free medium (product number 11095; Gibco), the number of cells were counted. The obtained primary keratocytes were mixed with the type I collagen solution Cellmatrix Type I-A (product number 637-00653; Nitta Gelatin Inc.) and Reconstitution Buffer (product number 635-00791; Nitta Gelatin Inc.) and dispensed into a 24-well plate so that the final concentration would be 1×10^5 cells/well to make a collagen gel. […]
After 48 hours of culturing, the supernatant was ultrafiltrated, 100 μl of concentrated hydrochloric acid was added and heated, and the collagen was hydrolyzed. […] The amount of hydroxyproline, which is the collagen degradation product in the solution, was measured in accordance with the method of Bergman et al (Analytical Chemistry 35(12): 1961-1965 (1963)) to assess the effect of suppressing collagen degradation of RARγ agonist A. The results are shown in FIG. 1.

[2] = tested on: primary subconjunctival fibroblasts; test: Suppression of three-dimensional collagen gel contraction, primary subconjunctival fibroblasts (Example 2); format: cell-based, rabbit; conditions: TGF-β1 1 ng/ml, RARγ agonist A 1, 10, 100 nM, after 48 hours, FIG. 2
Procedure: (§1) Primary subconjunctival fibroblasts and primary keratocytes were used to assess the suppression effect of a tested compound on three-dimensional collagen gel contraction in accordance with the method of Nishida et al. As in Example 1, primary subconjunctival fibroblasts were grown and detached from a culture slide. After washing, a cell suspension was made. The resulting suspension (1.1×10^7 cells/well MEM), type I collagen solution (5 mg/ml), 10×MEM, Reconstitution Buffer, and water were mixed on ice at 0.2:7:1:1:1.8 (volume ratio). A culture dish coated with 1% BSA was inoculated with 0.5 ml of the mixture, which was incubated for one hour at 37° C. to make a collagen gel. Then, 0.5 ml of serum free media, to which a certain amount (1 ng/ml) of TGF-β1 (R&D Systems) and RARγ agonist A at each of the concentrations 1 nM, 10 nM, and 100 nM were added, were each added onto the above-described gel. The gel, together with a gel to which an agent-free serum-free medium was added, was continuously incubated at 37° C. The diameter of gels was measured from the time when 24 hours has past.

primary keratocytes [3] = test: Suppression of three-dimensional collagen gel contraction, primary keratocytes (Example 2); format: cell-based, rabbit; conditions: TGF-β1, FIG. 3
Procedure: as §1, with “past. The gel diameter was measured for primary keratocytes in a similar manner to the primary subconjunctival fibroblasts.” for “past.”

primary keratocytes [4] = test: Suppression of three-dimensional collagen gel degradation in primary keratocytes by RARγ agonist A, B or C (Example 3); format: cell-based, rabbit; conditions: R667 1 nM, CD437 1 nM and 10 nM, BMS961 10 nM; stimulant IL-1β 10 ng/ml and Plasminogen 60 μg/ml; 48 hours; FIG. 4
Procedure: As in Example 1, primary keratocytes were grown and detached from a culture slide. After washing, a cell suspension was made. The resulting suspension (1.1×10^7 cells/well MEM), type I collagen solution (5 mg/ml), 10×MEM, Reconstitution Buffer, and water were mixed on ice at 0.2:7:1:1:1.8 (volume ratio). A culture dish coated with 1% BSA was inoculated with 0.5 ml of the mixture, which was incubated for one hour at 37° C. to make a collagen gel.
After 48 hours of culturing, collagen was hydrolyzed and the amount of hydroxyproline, which is the collagen degradation product, was measured by the same method as Example 1 to assess the effect of suppressing collagen degradation of each RARγ agonist.

MMP-1 = test: Suppression of expression and activation of MMP-1, western blot of keratocyte supernatant; format: cell-based, rabbit; conditions: R667 1×10^−6 to 1×10^−2 μM, 12 hours of pre-treatment; 0.1 ng/ml, 24 hours; FIG. 5A
Procedure: (§2) It is believed that secretion or expression of protease, i.e., matrix metalloproteinases (MMP), is associated with the degradation of type I collagen. In this regard, suppression of expression and activation of MMP-1, 2, 3, and 9 by RARγ agonist A was investigated. Primary keratocytes collected from a normal rabbit eye ball were cultured for 24 hours in a serum-free MEM medium. RARγ agonist A ([…]) ([…] concentration: 1×10^-6 μM, 1×10^-5 μM, 1×10^-4 μM, 1×10^-3 μM, 1×10^-2 μM) was added to the obtained culture solution and 12 hours of pre-treatment was performed. As a positive control, 10 nM of dexamethasone (Dex), which is a synthetic steroid, was added and pre-treatment was similarly performed. Then, IL-113 (0.1 ng/ml) was added for stimulation, and the supernatant was collected after 24 hours. The following western blot analysis and gelatin zymography analysis were used on the collected culture solution. After developing the supernatant of the collected culture solution in SDS-PAGE using 10% polyacrylamide gel, the separated proteins were transferred onto a nitrocellulose filter. Then, non-specific sites on the nitrocellulose filter were blocked and incubated for 24 hours at 4° C. with anti-human MMP-1 antibodies (R&D Systems) and anti-rabbit MMP-3 antibodies (Daiichi Fine Chemical Co., Ltd). ECL® reagent (GE Healthcare) was used for detection.

MMP-3 = test: Suppression of expression and activation of MMP-3, western blot of keratocyte supernatant; format: cell-based, rabbit; conditions: R667 1×10^−6 to 1×10^−2 μM, 12 hours of pre-treatment; IL-113 0.1 ng/ml, 24 hours; FIG. 5A
Procedure: as §2

MMP-2 = test: Suppression of expression and activation of MMP-2, gelatin zymography of keratocyte supernatant; format: cell-based, rabbit; conditions: R667 1×10^−6 to 1×10^−2 μM, 12 hours of pre-treatment; 0.1 ng/ml, 24 hours; FIG. 5B
Procedure: (§3) It is believed that secretion or expression of protease, i.e., matrix metalloproteinases (MMP), is associated with the degradation of type I collagen. In this regard, suppression of expression and activation of MMP-1, 2, 3, and 9 by RARγ agonist A was investigated. Primary keratocytes collected from a normal rabbit eye ball were cultured for 24 hours in a serum-free MEM medium. RARγ agonist A ([…]) ([…] concentration: 1×10^-6 μM, 1×10^-5 μM, 1×10^-4 μM, 1×10^-3 μM, 1×10^-2 μM) was added to the obtained culture solution and 12 hours of pre-treatment was performed. As a positive control, 10 nM of dexamethasone (Dex), which is a synthetic steroid, was added and pre-treatment was similarly performed. Then, IL-113 (0.1 ng/ml) was added for stimulation, and the supernatant was collected after 24 hours. The following western blot analysis and gelatin zymography analysis were used on the collected culture solution. After developing the supernatant of the collected culture solution on SDS-PAGE using 10% polyacrylamide gel containing 0.1% of gelatin, it was incubated for one hour at room temperature with a TBS solution containing 2.5% Triton X-100. The gel after incubation was dyed with a solution of Coomassie Brilliant Blue (Wako Pure Chemical Industries, Ltd.) and decolored with a 5% methanol-7.5% acetic acid solution (Nacalai Tesque, Inc).

MMP-9 = test: Suppression of expression and activation of MMP-9, gelatin zymography of keratocyte supernatant; format: cell-based, rabbit; conditions: R667 1×10^−6 to 1×10^−2 μM, 12 hours of pre-treatment; IL-113 0.1 ng/ml, 24 hours; FIG. 5B
Procedure: as §3

[5] = tested on: male Japanese white rabbits; test: Suppression of corneal opacity and ulceration, LPS injected into the corneal stroma; format: in vivo, rabbit; conditions: 0.1% R667 (24 mM), 50 μl instillation, four times daily until day 10; 1% LPS into the corneal stroma; FIG. 6B
Procedure: Systemic anesthesia was applied to male Japanese white rabbits (body weight 2.5-3.5 kg, 27 rabbits) by intramuscular administration of a solution of a mixture of ketamine and xylazine. Then, topical anesthesia was applied by a 0.4% oxybuprocaine hydrochloride instillation. Furthermore, 30 μl of 1% LPS (Sigma Aldrich) was injected into the corneal stroma of one eye, but not in the other eye.
50 μl of 0.1% PBS/0.1% polysorbate 80 solution containing RARγ agonist A (R667: 0.1%, 24 mM) was instillatively administered to the rabbits injected with LPS twice after the injection on the day of LPS injection and four times daily thereafter until day 10 by using a micropipette. As a control, a 0.1% PBS/0.1% polysorbate 80 solution free of RARγ agonist A (Vehicle) was similarly administered. FIGS. 6A and 6B show representative examples of a control and a case where RARγ agonist A was administered.

Compound: CC1(C)CCC(C)(C)c2cc(Cn3cccn3)c(/C=C/c3ccc(C(=O)O)cc3)cc21 [RARγ agonist A, (E)-4-(2-{3-[(1H-pyrazole-1-yl)methyl]-5,5,8,8-tetramethyl-5,6,7,8-tetrahydronaphthalene-2-yl}vinyl)benzoic acid]
- effect of suppressing collagen degradation (amount of hydroxyproline) [1]: dosage-dependent effect of suppressing keratoconjunctive collagen degradation
- suppression of collagen gel contraction (diameter of collagen gel) [2]: can suppress
- suppression of collagen gel contraction (diameter of collagen gel) (primary keratocytes [3]): can suppress
- effect of suppressing collagen degradation (ratio of amount of hydroxyproline) (primary keratocytes [4]): exhibited an effect of suppressing keratoconjunctive collagen degradation
- expression and activation of MMP-1 (bands of Pro-MMP-1 and active MMP-1) (MMP-1): concentration-dependently suppresses
- expression and activation of MMP-3 (bands of Pro-MMP-3 and active MMP-3) (MMP-3): concentration-dependently suppresses
- expression and activation of MMP-2 (bands of Pro-MMP-2 and active MMP-2) (MMP-2): concentration-dependently suppresses
- expression and activation of MMP-9 (bands of Pro-MMP-9 and active MMP-9) (MMP-9): concentration-dependently suppresses
- corneal opacity and ulceration [5]: corneal opacity and ulceration were not observed
